Results published in BindingDB's records for doi:10.1021/jm950543x (University of Caen Normandy, 1996).

Test: Binding affinity for 5-hydroxytryptamine 2C receptor

CN1CCN(c2nc3sccc3n3cccc23)CC1
IC50: 0.355 µM
